Laboratory results as given in ChEMBL document CHEMBL1201862, “PubChem BioAssay data set” (2004).
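Dose response: 5 concentrations. Exposure: 48 h. Format: 96-well plates. Endpoint: linear interpolation; highest concentration if not reached. At the GI50, growth is halved.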 Activity calls are given as the source filed them. No stated cut-off is given here; in the data, active = GI50 up to about 1.1 µM and inactive = higher.

Tests used:
Assay in all cases: inhibition of tumour cell growth, NCI panel, 48 h
[1] = tested on: 786-0
[2] = tested on: PC-3
[3] = tested on: BT-549
[4] = tested on: KM12
[5] = tested on: UO-31
[6] = tested on: A549
[7] = tested on: SK-MEL-2
[8] = tested on: HOP-92
[9] = tested on: A498
[10] = tested on: MOLT-4
[11] = tested on: SK-MEL-28
[12] = tested on: OVCAR-4
[13] = tested on: ACHN
[14] = tested on: OVCAR-5
[15] = tested on: SF-295
[16] = tested on: MDA-N
[17] = tested on: TK-10
[18] = tested on: Malme-3M
[19] = tested on: SF-539
[20] = tested on: MDA-MB-435
[21] = tested on: HL-60
[22] = tested on: M14
[23] = tested on: NCI-H522
[24] = tested on: NCI-H226
[25] = tested on: RXF 393
[26] = tested on: UACC-62
[27] = tested on: NCI/ADR-RES
[28] = tested on: T47D
[29] = tested on: COLO 205
[30] = tested on: SW-620
[31] = tested on: LOX IMVI
[32] = tested on: CAKI-1
[33] = tested on: HOP-62
[34] = tested on: EKVX
[35] = tested on: SN12C
[36] = tested on: Hs-578T
[37] = tested on: U-251
[38] = tested on: K562
[39] = tested on: HCC 2998
[40] = tested on: DU-145
[41] = tested on: OVCAR-3
[42] = tested on: HCT-116
[43] = tested on: SR
[44] = tested on: SNB-75
[45] = tested on: HT-29
[46] = tested on: CCRF-CEM
[47] = tested on: HCT-15
[48] = tested on: IGROV-1
[49] = tested on: NCI-H460
[50] = tested on: NCI-H23
[51] = tested on: OVCAR-8
[52] = tested on: RPMI-8226
[53] = tested on: SF-268
[54] = tested on: MCF7
[55] = tested on: SK-MEL-5
[56] = tested on: SK-OV-3
[57] = tested on: MDA-MB-231
[58] = tested on: UACC-257
[59] = tested on: SNB-19

Measured: GI50

O=C1NCC(CSc2nc3cc(C4CCCc5c4[nH]c4ccccc54)ccc3o2)N1 (configuration not stated)
inactive: [1] 43.3 µM | [2] 37.2 µM | [3] 47.1 µM | [4] 56.4 µM | [5] 53.1 µM | [6] 22.5 µM | [7] 39.3 µM | [8] 21.2 µM | [9] 18 µM | [10] 15.2 µM | [11] 80.2 µM | [12] 32.2 µM | [13] 34.2 µM | [14] 61.8 µM | [15] 43.5 µM | [16] 42.8 µM | [17] 72.4 µM | [18] 53.7 µM | [19] 36.4 µM | [20] 30.9 µM | [21] 43.9 µM | [22] 45.1 µM | [23] 29.2 µM | [24] 62.7 µM | [25] 26.5 µM | [26] 39.6 µM | [27] 50.4 µM | [28] 25.8 µM | [29] 61.4 µM | [30] 39.4 µM | [31] 32.5 µM | [32] 41.5 µM | [33] > 100 µM | [34] 25.6 µM | [35] 49.7 µM | [36] 38.1 µM | [37] 51.5 µM | [38] 31.5 µM | [39] 95.1 µM | [40] 56 µM | [41] 44.1 µM | [42] 33.4 µM | [43] 14.7 µM | [44] > 100 µM | [45] 21.8 µM | [46] 35.2 µM | [48] 33 µM | [49] 72.3 µM | [50] 32.5 µM | [51] 30.8 µM | [52] 22.4 µM | [53] 36 µM | [54] 39.7 µM | [55] 28.5 µM | [56] > 100 µM | [57] 23.1 µM | [58] 45.1 µM | [59] 53.7 µM
24.5 µM: [47]

CC(=O)c1ccc(Nc2c3ccccc3nc3occc23)cc1
< 0.01 µM: [47]
active: [1] < 0.01 µM | [2] < 0.01 µM | [4] < 0.01 µM | [5] 0.0196 µM | [6] 0.124 µM | [7] 0.0108 µM | [10] < 0.01 µM | [11] 0.643 µM | [12] < 0.0246 µM | [13] < 0.01 µM | [14] 0.327 µM | [15] < 0.01 µM | [16] < 0.01 µM | [17] 0.0371 µM | [18] < 0.01 µM | [19] < 0.01 µM | [20] < 0.01 µM | [21] < 0.01 µM | [22] < 0.01 µM | [23] < 0.01 µM | [24] 0.168 µM | [25] < 0.01 µM | [26] < 0.01 µM | [27] < 0.01 µM | [28] 0.011 µM | [29] < 0.01 µM | [30] < 0.01 µM | [31] < 0.0143 µM | [32] < 0.01 µM | [33] 0.0127 µM | [35] 0.0172 µM | [36] 0.0152 µM | [37] < 0.0124 µM | [38] < 0.01 µM | [39] 0.0498 µM | [40] 0.0213 µM | [41] < 0.01 µM | [42] < 0.01 µM | [43] < 0.01 µM | [44] 0.0109 µM | [45] < 0.01 µM | [46] < 0.01 µM | [48] < 0.01 µM | [49] 0.01 µM | [50] 0.175 µM | [51] 0.0174 µM | [52] < 0.01 µM | [53] < 0.0105 µM | [54] < 0.01 µM | [55] < 0.0219 µM | [56] 0.0402 µM | [57] 0.0194 µM | [59] < 0.0168 µM
inactive: [3] 2.12 µM | [8] 2.56 µM | [9] 2.32 µM | [58] 17.1 µM
